From patent US7205295B2, “Benzoxazin-3-ones and derivatives thereof as therapeutic agents” (Warner-Lambert Company LLC, priority 2002, dated 2007) come the findings set out here.

T1 sequence (P48736 whole entry, species assumed): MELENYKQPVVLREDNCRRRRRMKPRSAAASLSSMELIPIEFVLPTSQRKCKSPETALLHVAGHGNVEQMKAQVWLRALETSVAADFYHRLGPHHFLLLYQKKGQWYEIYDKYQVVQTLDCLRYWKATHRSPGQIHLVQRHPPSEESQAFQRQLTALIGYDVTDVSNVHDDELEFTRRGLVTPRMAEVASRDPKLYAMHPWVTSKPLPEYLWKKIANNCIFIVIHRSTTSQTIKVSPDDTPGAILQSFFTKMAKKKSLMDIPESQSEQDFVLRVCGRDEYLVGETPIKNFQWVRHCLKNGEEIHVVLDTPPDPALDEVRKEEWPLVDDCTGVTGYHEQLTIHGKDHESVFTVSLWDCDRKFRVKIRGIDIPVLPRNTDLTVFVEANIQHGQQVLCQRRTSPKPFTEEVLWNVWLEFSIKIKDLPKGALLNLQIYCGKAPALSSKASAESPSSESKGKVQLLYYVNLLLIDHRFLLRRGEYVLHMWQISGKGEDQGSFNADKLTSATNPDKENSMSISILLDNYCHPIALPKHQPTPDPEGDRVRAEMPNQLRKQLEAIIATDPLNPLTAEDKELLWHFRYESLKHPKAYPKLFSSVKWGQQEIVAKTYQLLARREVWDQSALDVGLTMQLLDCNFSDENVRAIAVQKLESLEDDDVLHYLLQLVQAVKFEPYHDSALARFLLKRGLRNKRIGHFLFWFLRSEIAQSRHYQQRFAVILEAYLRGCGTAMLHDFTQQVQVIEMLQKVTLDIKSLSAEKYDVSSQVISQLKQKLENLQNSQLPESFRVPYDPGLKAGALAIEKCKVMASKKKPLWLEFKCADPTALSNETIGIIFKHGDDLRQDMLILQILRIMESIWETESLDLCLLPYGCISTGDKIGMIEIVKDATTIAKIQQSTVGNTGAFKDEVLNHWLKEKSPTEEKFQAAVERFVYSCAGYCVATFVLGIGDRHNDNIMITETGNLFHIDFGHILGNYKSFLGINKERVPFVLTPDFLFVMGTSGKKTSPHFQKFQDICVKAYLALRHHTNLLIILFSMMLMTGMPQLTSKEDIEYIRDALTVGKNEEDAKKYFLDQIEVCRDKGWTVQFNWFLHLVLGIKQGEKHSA
T1 sequence (Q8WYR1 whole entry partner, species assumed): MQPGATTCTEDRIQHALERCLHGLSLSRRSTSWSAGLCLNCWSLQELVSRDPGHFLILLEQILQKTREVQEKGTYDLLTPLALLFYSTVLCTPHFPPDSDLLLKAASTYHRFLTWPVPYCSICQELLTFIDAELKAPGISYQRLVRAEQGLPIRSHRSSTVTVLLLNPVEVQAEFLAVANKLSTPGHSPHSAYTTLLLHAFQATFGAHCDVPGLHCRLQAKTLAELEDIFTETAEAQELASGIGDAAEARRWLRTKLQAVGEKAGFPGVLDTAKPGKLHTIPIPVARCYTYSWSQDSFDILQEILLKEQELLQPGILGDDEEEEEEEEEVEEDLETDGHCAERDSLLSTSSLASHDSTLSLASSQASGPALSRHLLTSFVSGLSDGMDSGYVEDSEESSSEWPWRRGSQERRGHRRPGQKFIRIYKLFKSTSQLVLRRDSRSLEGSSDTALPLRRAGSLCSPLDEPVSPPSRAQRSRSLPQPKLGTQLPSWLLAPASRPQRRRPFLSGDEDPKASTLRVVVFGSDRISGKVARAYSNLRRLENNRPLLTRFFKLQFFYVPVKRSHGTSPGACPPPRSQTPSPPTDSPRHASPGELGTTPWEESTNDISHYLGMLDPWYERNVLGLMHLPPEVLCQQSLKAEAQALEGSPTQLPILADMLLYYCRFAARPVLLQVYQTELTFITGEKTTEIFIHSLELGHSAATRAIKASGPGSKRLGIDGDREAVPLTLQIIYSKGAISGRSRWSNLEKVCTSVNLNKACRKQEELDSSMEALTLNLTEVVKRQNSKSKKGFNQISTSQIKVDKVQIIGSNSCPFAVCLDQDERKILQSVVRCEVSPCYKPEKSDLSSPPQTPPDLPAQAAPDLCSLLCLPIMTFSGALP

This assay concerns the target T1, PI3Kγ (p101/p110γ protein) (Homo sapiens, UniProt P48736).
T1 construct: HA; made in house; host or cells: Spodoptera frugiperda (Sf9) cells, baculovirus co-infection
Description: PI3Kγ In Vitro Kinase Assay. The class given is biochemical. The settings on record: purified recombinant p101/p110γ with G protein β1/γ2 subunits; 20 μM ATP, 25 μM PIP2; 20 minutes at room temperature. The essentials:
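Sf9-expressed, purified human p101/p110γ (2.7 nM) was activated by Gβ1/γ2 (57.7 nM) and reacted with 20 μM ATP plus [γ-32P]ATP on PIP2 (25 μM)/PE (300 μM) micelles with 10 mM MgCl2 in HEPES buffer. Reactions ran 20 min at room temperature. Filter-captured radiolabeled PIP3 was counted by scintillation.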
In the case of `CC(C)(C)c1cc(CN2C(=O)COc3ccc(C=C4OC(=S)NC4=O)cc32)cc(C(C)(C)C)n1` [Example 201, 4-(2,6-Di-tert-butyl-pyridin-4-ylmethyl)-6-(4-oxo-2-thioxo-oxazolidin-5-ylidenemethyl)-4H-1,4-benzoxazin-3-one], the IC50 is 70 nM.
For the compound `O=C1NC(=O)C(=Cc2ccc3c(c2)N(Cc2ccccc2)C(=O)CO3)S1` [Example 202, 5-(4-Benzyl-3-oxo-3,4-dihydro-2H-1,4-benzoxazin-6-ylmethylene)-thiazolidine-2,4-dione], the IC50 stood at 3 nM.
On to `O=C1COc2ccc(C=C3OC(=O)NC3=O)cc2N1` [Example 203, 5-(3-Oxo-3,4-dihydro-2H-1,4-benzoxazin-6-ylmethylene)-oxazolidine-2,4-dione], for which the IC50 is 175 nM.
For `COc1cc(CN2C(=O)COc3ccc(C=C4SC(=S)NC4=O)cc32)cc(Cl)n1` [Example 205, 4-(2-Chloro-6-methoxy-pyridin-4-ylmethyl)-6-(4-oxo-2-thioxo-thiazolidin-5-ylidenemethyl)-4H-benzo[1,4]oxazin-3-one], the 50% inhibitory concentration (IC50) is 32 nM.
`COc1cc(CN2C(=O)COc3ccc(C=C4SC(=S)NC4=O)cc32)cc(OC)n1` [Example 206, 4-(2,6-Dimethoxy-pyridin-4-ylmethyl)-6-(4-oxo-2-thioxo-thiazolidin-5-ylidenemethyl)-4H-benzo[1,4]oxazine-3-one]: the IC50 stood at 60 nM.
As to `CC(C)c1cc(CN2C(=O)COc3ccc(C=C4SC(=S)NC4=O)cc32)cc(C(C)C)c1` [Example 210, 4-(3,5-Diisopropyl-benzyl)-6-(4-oxo-2-thioxo-thiazolidin-5-ylidenemethyl)-4H-benzo[1,4]oxazin-3-one], the IC50 is 45 nM.
For the compound `Cc1cc(CN2C(=O)COc3ccc(C=C4SC(=S)NC4=O)cc32)cc(C(C)(C)C)c1` [Example 211, 4-(3-tert-Butyl-5-methyl-benzyl)-6-(4-oxo-2-thioxo-thiazolidin-5-ylidenemethyl)-4H-1,4-benzoxazin-3-one], the IC50 stood at 17 nM.
On to `CC(C)(C)c1cc(CO)cc(CN2C(=O)COc3ccc(C=C4SC(=S)NC4=O)cc32)c1` [Example 212, 4-(3-tert-Butyl-5-hydroxymethyl-benzyl)-6-(4-oxo-2-thioxo-thiazolidin-5-ylidenemethyl)-4H-1,4-benzoxazin-3-one], for which the IC50 turned out to be 22 nM.
The same measure for `CC1CC(C)CN(C(=O)CN2C(=O)COc3ccc(C=C4SC(=S)NC4=O)cc32)C1` (stereo not shown) [Example 213, 4-[2-(3,5-Dimethyl-piperidin-1-yl)-2-oxo-ethyl]-6-(4-oxo-2-thioxo-thiazolidin-5-ylidenemethyl)-4H-1,4-benzoxazin-3-one]: 2100 nM; for `CC(C)(C)OC(=O)N1CCN(C(=O)CN2C(=O)COc3ccc(C=C4SC(=S)NC4=O)cc32)CC1` [Example 214, 4-{2-[3-Oxo-6-(4-oxo-2-thioxo-thiazolidin-5-ylidenemethyl)-2,3-dihydro-1,4-benzoxazin-4-yl]-acetyl}-piperazine-1-carboxylic acid tert-butyl ester]: 3180 nM; for `O=C1NC(=S)SC1=Cc1ccc2c(c1)N(CC(=O)N1CCNCC1)C(=O)CO2` [Example 215, 4-(2-Oxo-2-piperazin-1-yl-ethyl)-6-(4-oxo-2-thioxo-thiazolidin-5-ylidenemethyl)-4H-1,4-benzoxazin-3-one]: 1080 nM.
As to `CC(C)(C)c1cc(CN2C(=O)COc3ccc(C=C4SC(=S)NC4=O)cc32)cc(C(N)=O)c1` [Example 216, 3-tert-Butyl-5-[3-oxo-6-(4-oxo-2-thioxo-thiazolidin-5-ylidenemethyl)-2,3-dihydro-1,4-benzoxazin-4-ylmethyl]-benzamide], the IC50 is 26 nM.
Regarding `O=C1NC(=S)SC1=Cc1ccc2c(c1)N(Cc1cc(Br)cc(Br)c1)C(=O)CO2` [Example 217, 4-(3,5-Dibromo-benzyl)-6-(4-oxo-2-thioxo-thiazolidin-5-ylidenemethyl)-4H-1,4-benzoxazin-3-one], the IC50 is 42 nM.
Turning to `Cc1cc(C)cc(C(C)N2C(=O)COc3ccc(C=C4SC(=S)NC4=O)cc32)c1` (stereo not shown) [Example 218, 4-[1-(3,5-Dimethyl-phenyl)-ethyl]-6-(4-oxo-2-thioxo-thiazolidin-5-ylidenemethyl)-4H-1,4-benzoxazin-3-one], the IC50 was found to be 55 nM.
`CC(C)(C)c1cc(CN2C(=O)COc3ccc(C=C4SC(=O)NC4=O)cc32)cc(C(C)(C)C)c1O` [Example 219, 5-[4-(3,5-Di-tert-butyl-4-hydroxy-benzyl)-3-oxo-3,4-dihydro-2H-1,4-benzoxazin-6-ylmethylene]-thiazolidine-2,4-dione]: the IC50 was 6 nM.
Turning to `CC(C)(C)c1cc(CN2C(=O)COc3c(F)cc(C=C4SC(=S)NC4=O)cc32)cc(C(C)(C)C)n1` [Example 220, 4-(2,6-Di-tert-butyl-pyridin-4-ylmethyl)-8-fluoro-6-(4-oxo-2-thioxo-thiazolidin-5-ylidenemethyl)-4H-1,4-benzoxazin-3-one], the IC50 was 495 nM.
The result for `Cc1cc(C=C2SC(=S)NC2=O)cc2c1OCC(=O)N2Cc1cc(C(C)(C)C)nc(C(C)(C)C)c1` [Example 221, 4-(2,6-Di-tert-butyl-pyridin-4-ylmethyl)-8-methyl-6-(4-oxo-2-thioxo-thiazolidin-5-ylidenemethyl)-4H-1,4-benzoxazin-3-one] reads 895 nM; that for `CN1CCN(Cc2cc(CN3C(=O)COc4ccc(C=C5SC(=S)NC5=O)cc43)cc(C(C)(C)C)c2)CC1` [Example 222, 4-[3-tert-Butyl-5-(4-methyl-piperazin-1-ylmethyl)-benzyl]-6-(4-oxo-2-thioxo-thiazolidin-5-ylidenemethyl)-4H-1,4-benzoxazin-3-one], 6 nM.
With `CC1Oc2ccc(C=C3SC(=S)NC3=O)cc2N(Cc2ccc(CN3CCN(C)CC3)cc2)C1=O` (stereo not shown) [Example 223, 2-Methyl-4-[4-(4-methyl-piperazin-1-ylmethyl)-benzyl]-6-(4-oxo-2-thioxo-thiazolidin-5-ylidenemethyl)-4H-1,4-benzoxazin-3-one], the IC50 came out at 295 nM.
As for `Cc1cc(C=C2SC(=O)NC2=O)cc2c1OCC(=O)N2Cc1cc(C(C)(C)C)nc(C(C)(C)C)c1` [Example 224, 5-[4-(2,6-Di-tert-butyl-pyridin-4-ylmethyl)-8-methyl-3-oxo-3,4-dihydro-2H-1,4-benzoxazin-6-ylmethylene]-thiazolidine-2,4-dione], the IC50 was 255 nM.
`O=C1NC(=S)SC1=Cc1ccc2c(c1)N(Cc1cc(Cl)nc(Cl)c1)C(=O)CO2` [Example 225, 4-(2,6-Dichloro-pyridin-4-ylmethyl)-6-(4-oxo-2-thioxo-thiazolidin-5-ylidenemethyl)-4H-1,4-benzoxazin-3-one]: the IC50 worked out at 49 nM.
The same measure for `O=C1NC(=O)C(=Cc2ccc3c(c2)N(Cc2cc(Cl)nc(Cl)c2)C(=O)CO3)S1` [Example 226, 5-[4-(2,6-Dichloro-pyridin-4-ylmethyl)-3-oxo-3,4-dihydro-2H-1,4-benzoxazin-6-ylmethylene]-thiazolidine-2,4-dione]: 34200 nM; for `O=C1NC(=O)C(=Cc2ccc3c(c2)N(Cc2ccncc2)C(=O)CO3)S1` [Example 227, 5-(3-Oxo-4-pyridin-4-ylmethyl-3,4-dihydro-2H-1,4-benzoxazin-6-ylmethylene)-thiazolidine-2,4-dione]: 48 nM; for `CN1CCN(Cc2ccc(CN3C(=O)COc4ccc(C=C5SC(=O)NC5=O)cc43)cc2)CC1` [Example 228, 5-{4-[4-(4-Methyl-piperazin-1-ylmethyl)-benzyl]-3-oxo-3,4-dihydro-2H-1,4-benzoxazin-6-ylmethylene}-thiazolidine-2,4-dione]: 3 nM.
The result for `Cc1cc(CN2C(=O)COc3ccc(C=C4SC(=S)NC4=O)cc32)cc(C)n1` [Example 229, 4-(2,6-Dimethyl-pyridin-4-ylmethyl)-6-(4-oxo-2-thioxo-thiazolidin-5-ylidenemethyl)-4H-1,4-benzoxazin-3-one] reads 20 nM; that for `Cc1cc(CN2C(=O)COc3ccc(C=C4SC(=O)NC4=O)cc32)cc(C)n1` [Example 230, 5-[4-(2,6-Dimethyl-pyridin-4-ylmethyl)-3-oxo-3,4-dihydro-2H-1,4-benzoxazin-6-ylmethylene]-thiazolidine-2,4-dione], 43 nM; that for `COC(=O)c1nc(CN2C(=O)COc3ccc(C=C4SC(=S)NC4=O)cc32)ncc1OC` [Example 231, 5-Methoxy-2-[3-oxo-6-(4-oxo-2-thioxo-thiazolidin-5-ylidenemethyl)-2,3-dihydro-1,4-benzoxazin-4-ylmethyl]-pyrimidine-4-carboxylic acid methyl ester], 50 nM.
Take `Cc1cc(C)nc(CN2C(=O)COc3ccc(C=C4SC(=S)NC4=O)cc32)n1` [Example 232, 4-(4,6-Dimethyl-pyrimidine-2-ylmethyl)-6-(4-oxo-2-thioxo-thiazolidin-5-ylidenemethyl)-4H-benzo[1,4]oxazin-3-one]: the IC50 came out at 125 nM.
Regarding `O=C1NC(=S)SC1=Cc1cc(F)c2c(c1)N(Cc1ccc(Cl)c(C(F)(F)F)c1)C(=O)CO2` [Example 233, 4-(4-Chloro-3-trifluoromethyl-benzyl)-8-fluoro-6-(4-oxo-2-thioxo-thiazolidin-5-ylidenemethyl)-4H-1,4-benzoxazin-3-one], the IC50 amounted to 35 nM.
As for `CC(C)(C)c1cc(C(C)(C)C)nc(CN2C(=O)COc3ccc(CC4SC(=S)NC4=O)cc32)n1` (stereo not shown) [Example 234, 4-(4,6-Di-tert-butyl-pyrimidin-2-ylmethyl)-6-(4-oxo-2-thioxo-thazolidin-5-ylmethyl)-4H-benzo[1,4]oxazin-3-one], the IC50 was 2070 nM.
As to `CC(C)(C)c1cc(C(C)(C)C)nc(CN2C(=O)COc3c(F)cc(CC4SC(=S)NC4=O)cc32)n1` (stereo not shown) [Example 235, 4-(4,6-Di-tert-butyl-pyrimidin-2-ylmethyl)-8-fluoro-6-(4-oxo-2-thioxo-thazolidin-5-ylmethyl)-4H-benzo[1,4]oxazin-3-one], the half-inhibitory concentration (IC50) came to 1240 nM.
